Earlier results, collected in paper PMC7123690 (HCV: The Journey from Discovery to a Cure, 2018).
Where two headings read alike, the source gives them in different places.

Legend:
HCV GT-1 = HCV GT-1 patients
[1] = rat, dog, and cynomolgus monkey plasma
CYP 2C9 = details: recombinant CYP 2C9
CYP 1A2 = details: recombinant CYP 1A2
[2] = HLM
[3] = rat
[4] = dog
[5] = dog LM
[6] = P-gp knockout mice
CYP 2C19 = details: recombinant CYP 2C19
[7] = RLM
HCV NS3/4A GT-1a enzyme = details: read-out: IC50 GT-1a enzyme
isolated rabbit hearts = details: for effects on HR and SNRT: 60 min perfusion
[8] = test system: GT-1 and GT-4 replication; details: GT-1 and GT-4 replicons
CYP 2D6 = details: recombinant CYP 2D6
[9] = cynomolgus monkey LMs
[10] = not given; remark: listed apart in the source
HCV GT-1b replicon = details: read-out: EC50 GT-1b replicon
[11] = not given; remark: listed apart in the source
[12] = test system: individual recombinant CYP enzymes
HCV = details: combined with IFN-α, ribavirin (52), 2 and 3
[13] = test system: canine parainfluenza virus
[14] = dog; remark: listed apart in the source
[15] = test system: bovine viral diarrhea virus
[16] = not given; remark: listed apart in the source
[17] = test system: cardiac ion channel and receptor screens
GT-1 HCV = details: 120 mg dose, 12-h post-dose, GT-1 HCV patients
[18] = not given; remark: listed apart in the source
[19] = anesthetized rabbits
[20] = 60-min perfusion protocol, 10 μM, similar to vehicle control

C=C[C@@H]1C[C@]1(NC(=O)[C@@H]1C[C@@H](Oc2ncc(OC)c3ccc(Cl)cc23)CN1C(=O)[C@@H](NC(=O)OC(C)(C)C)C(C)(C)C)C(=O)NS(=O)(=O)C1CC1 [Compound 1, Asunaprevir]
mean plasma HCV RNA decline (HCV GT-1; single 50 mg dose): 0.64 log10 IU/mL
mean plasma HCV RNA decline (HCV GT-1; single 200 mg dose): 2.26 log10 IU/mL
mean plasma HCV RNA decline (HCV GT-1; single 600 mg dose): 2.87 log10 IU/mL
plasma protein binding [1]: 97.2–98.8%
IC50 (CYP 2C9): > 40 µM
IC50 (CYP 1A2): > 40 µM
adverse events (AEs) (NHVs, single doses 10-1,200 mg oral suspension): generally mild to moderate and comparable to the placebo controls
cardiac safety analysis (short duration SAD study): no evidence of an increased risk of adverse cardiac events
turnover in LMs [2]: 5.8 ± 1.8
direct excretion into the bile [3]: 9 % of the dose
liver level 24-h post-dose ([3]; oral): 15.2 µM
direct excretion into the bile [4]: 22 % of the dose
turnover in LMs [5]: 4.7 pmol/min/mg
oral bioavailability [6]: > 100%
IC50 (CYP 2C19): > 40 µM
turnover in LMs [7]: 4.9 pmol/min/mg
IC50 (HCV NS3/4A GT-1a enzyme): 0.001 µM
maximal increase in SNRT (isolated rabbit hearts; [20]): 14%
maximal reduction of heart rate (isolated rabbit hearts; [20]): 10%
% HR change (isolated rabbit hearts; perfusion concentration 10 μM): −4%
% SNRT change (isolated rabbit hearts; perfusion concentration 10 μM): 5%
EC50 [8]: < 0.005 µM
IC50 (CYP 2D6): > 40 µM
turnover in LMs [9]: 50 ± 22 pmol/min/mg
plasma protein binding ([10]; human plasma): 98.8%
EC50 (HCV GT-1b replicon): 0.006 µM
permeability in PAMPA ([11]; pH = 5.5): > 47.3 ×10⁻⁶ cm/s
permeability in PAMPA ([11]; pH = 7.4): > 49.2 ×10⁻⁶ cm/s
metabolic turnover by recombinant CYP enzymes [12]: significant metabolic turnover only by CYP 3A4
activity in combination studies (HCV): additive or synergistic activity
IC50 (CYP 3A4; CYP 3A4, substrate probe 7-benzyloxy-trifluoromethylcoumarin (BFC)): 29 µM
IC50 (CYP 3A4; CYP 3A4, substrate probe benzyloxyresorufin (BZR)): 8 µM
IC50 (CYP 3A4; CYP 3A4, substrate probe midazolam): 27 µM

C=C[C@@H]1C[C@]1(NC(=O)[C@@H]1C[C@@H](Oc2nccc3cc(OC)ccc23)CN1C(=O)[C@@H](NC(=O)OC(C)(C)C)C(C)(C)C)C(=O)NS(=O)(=O)C1CC1 [Compound 30]
activity in cell culture replication assay [13]: inactive
affinity for plasma proteins [14]: 98.2%
activity in cell culture replication assay [15]: inactive
terminal t 1/2 ([16]; NHVs, single oral doses 10-120 mg): 4 to 8 h
effects on cardiac function (electrocardiographic changes) ([16]; one NHV and one HCV-infected patient, 120 mg dose): transient mild bradycardia, PR interval prolongation, and junctional rhythm disturbances
activity in cell culture replication assay (HIV-1): inactive
outcome of cardiac ion channel and receptor screens [17]: failed to identify a biochemical target
oral bioavailability [3]: 18%
plasma t 1/2 [3]: 4.4 h
plasma level 24-h post-dose ([3]; oral 20 mpk): 8 nM
oral bioavailability ([4]; PO, 1 mpk): 23%
mean decline in viral load (GT-1 HCV): 1.8 log10 IU/mL
observed cardiovascular effects ([18]; conscious telemetrized dogs, two 15 mpk doses): a reduction in heart rate and prolongation of the PR interval
plasma exposure at which CV effects occurred ([18]; estimated from non-telemeterized animals): approximately 12 μM
decline in HR ([19]; IV 1, 3 and 10 mpk each infused over 5 min): 32 bpm
reduction in blood pressure from baseline ([19]; not drug related, also seen in vehicle controls): 14–23 mmHg
decline in HR (isolated rabbit hearts; 3 μM, ~12 min perfusion): −15 bpm
decline in HR (isolated rabbit hearts; 10 μM, ~12 min perfusion): −23 bpm
effects on atrioventricular conduction time or QRS interval (isolated rabbit hearts; 0.3-10 μM): no effects
increase in SNRT (isolated rabbit hearts; 3 and 10 μM, ~12 min perfusion): ≥ 425 ms
effects on HR and SNRT (isolated rabbit hearts; 0.1 μM): absent
effects on HR and SNRT (isolated rabbit hearts; 0.3 μM): attenuated
effects on HR and SNRT (isolated rabbit hearts; 1 μM): effects on HR and SNRT were observed
% HR change (isolated rabbit hearts; perfusion concentration 10 μM): −25%
affinity for plasma proteins ([10]; human): 99.1%
EC50 (HCV GT-1b replicon): 0.012 µM
